In PubChem BioAssay AID1259407 (Chemical Carcinogenesis Research Information System (CCRIS), 2018):
Calls of active or inactive are those of the source. No rule for the calls is given here.

System: CCRIS mutagenicity, Ames/micronucleus/aberration tests
Assay: CCRIS mutagenicity studies
[1] = Test System: AMES SALMONELLA TYPHIMURIUM, Strain/Indicator: TA98, Metabolic Activation: NONE, Method: STANDARD PLATE
[2] = Test System: AMES SALMONELLA TYPHIMURIUM, Strain/Indicator: TA100, Metabolic Activation: NONE, Method: PREINCUBATION

## Cc1c2c(c(C)c3c1ccc1ccccc13)C=C[C@@H](O)[C@@H]2O
Test System: CHINESE HAMSTER V-79, Strain/Indicator: V-79/OUABAIN, Metabolic Activation: CELL-MEDIATED, Method: STANDARD PLATE
  mutagenic call: active; positive

## C[C@]12CC[C@H]3C(=CCc4cc(O)ccc43)[C@@H]1CCC2=O
Test System: UDS RAT HEPATOCYTES, Strain/Indicator: THY INCORP (18-20 HR), Metabolic Activation: NONE, Method: LIQUID SCINTILLATION COUNTING
  mutagenic call: inactive; negative

## CC(=O)N(OC(=O)c1ccccc1)c1ccc2c(c1)Cc1ccccc1-2
[1]
  mutagenic call: active; positive
Test System: AMES SALMONELLA TYPHIMURIUM, Strain/Indicator: TA98, Metabolic Activation: RAT, LIVER, S-9, AROCLOR 1254, Method: STANDARD PLATE
  mutagenic call: active; positive

## CNc1ccc(O)cc1
Test System: AMES SALMONELLA TYPHIMURIUM, Strain/Indicator: TA97, Metabolic Activation: HAMSTER, LIVER, AROCLOR 1254 (10%), Method: PREINCUBATION
  mutagenic call: inactive; negative
Test System: AMES SALMONELLA TYPHIMURIUM, Strain/Indicator: TA97, Metabolic Activation: NONE, Method: PREINCUBATION
  mutagenic call: inactive; negative
Test System: AMES SALMONELLA TYPHIMURIUM, Strain/Indicator: TA97, Metabolic Activation: RAT, LIVER, S-9, AROCLOR 1254 (10%), Method: PREINCUBATION
  mutagenic call: active; positive
Test System: AMES SALMONELLA TYPHIMURIUM, Strain/Indicator: TA98, Metabolic Activation: HAMSTER, LIVER, S-9, AROCLOR 1254 (10%), Method: PREINCUBATION
  mutagenic call: inactive; negative
Test System: AMES SALMONELLA TYPHIMURIUM, Strain/Indicator: TA98, Metabolic Activation: NONE, Method: PREINCUBATION
  mutagenic call: inactive; negative
Test System: AMES SALMONELLA TYPHIMURIUM, Strain/Indicator: TA98, Metabolic Activation: RAT, LIVER, S-9, AROCLOR 1254 (10%), Method: PREINCUBATION
  mutagenic call: inactive; negative
[2]
  mutagenic call: inactive; negative
Test System: AMES SALMONELLA TYPHIMURIUM, Strain/Indicator: TA100, Metabolic Activation: RAT, LIVER, S-9, AROCLOR 1254 (10%), Method: PREINCUBATION
  mutagenic call: inactive; negative
Test System: AMES SALMONELLA TYPHIMURIUM, Strain/Indicator: TA1535, Metabolic Activation: HAMSTER, LIVER, S-9, AROCLOR 1254 (10%), Method: PREINCUBATION
  mutagenic call: inactive; negative
Test System: AMES SALMONELLA TYPHIMURIUM, Strain/Indicator: TA1535, Metabolic Activation: NONE, Method: PREINCUBATION
  mutagenic call: inactive; negative
Test System: AMES SALMONELLA TYPHIMURIUM, Strain/Indicator: TA1535, Metabolic Activation: RAT, LIVER, S-9, AROCLOR 1254 (10%), Method: PREINCUBATION
  mutagenic call: inactive; negative
Test System: AMES SALMONELLA TYPHIMURIUM, Strain/Indicator: TA1537, Metabolic Activation: HAMSTER, LIVER, S-9, AROCLOR 1254 (10%), Method: PREINCUBATION
  mutagenic call: active; positive
Test System: AMES SALMONELLA TYPHIMURIUM, Strain/Indicator: TA1537, Metabolic Activation: NONE, Method: PREINCUBATION
  mutagenic call: inactive; negative
Test System: AMES SALMONELLA TYPHIMURIUM, Strain/Indicator: TA1537, Metabolic Activation: RAT, LIVER, S-9, AROCLOR 1254 (10%), Method: PREINCUBATION
  mutagenic call: active; positive

## N[C@@H](CSc1ccc([N+](=O)[O-])cc1[N+](=O)[O-])C(=O)O
Test System: AMES SALMONELLA TYPHIMURIUM, Strain/Indicator: TA100(NR), Metabolic Activation: NONE, Method: PREINCUBATION
  mutagenic call: active; positive
Test System: AMES SALMONELLA TYPHIMURIUM, Strain/Indicator: TA100/GSH-, Metabolic Activation: NONE, Method: PREINCUBATION
  mutagenic call: active; positive
[2]
  mutagenic call: active; positive

## Clc1cccc2c1oc1ccccc12
[1]
  mutagenic call: inactive; negative
Test System: AMES SALMONELLA TYPHIMURIUM, Strain/Indicator: TA98, Metabolic Activation: RAT, LIVER, S-9, PHENOBARBITAL AND NAPHTHOFLAVONE, Method: STANDARD PLATE
  mutagenic call: inactive; negative
Test System: AMES SALMONELLA TYPHIMURIUM, Strain/Indicator: TA100, Metabolic Activation: NONE, Method: STANDARD PLATE
  mutagenic call: inactive; negative
Test System: AMES SALMONELLA TYPHIMURIUM, Strain/Indicator: TA100, Metabolic Activation: RAT, LIVER, S-9, PHENOBARBITAL AND NAPHTHOFLAVONE, Method: STANDARD PLATE
  mutagenic call: inactive; negative
